The target in the assay is T1, N-SH3 domain of Crkl (WT) (Homo sapiens, UniProt P46109).
T1 construct: The construct encoding the N-SH3 domain of Crkl was subcloned in a pET28b+ plasmid vector; His-tag; made in house; host or cells: E. coli BL21
The assay is described as follows: Stopped-flow kinetic binding, N-SH3 WT versus C3G277–296. The following applies: 10 °C. From the text:
In order to characterize the binding reaction between the N-SH3 domain of Crkl and C3G, we conducted kinetic binding experiments with a stopped-flow apparatus, by rapidly mixing the N-SH3 domain versus the C3G277–296 peptide, the latter covalently linked with a dansyl group at its N-terminus (Dansyl-[…]). This modification allowed us to monitor the binding reaction by following the change of Förster resonance energy transfer (FRET) signal upon binding, which generates from the two naturally present tryptophan residues in the N-SH3 domain in position 164 and 165 (donor) and the dansyl group linked to the peptide (acceptor).
To characterize the binding between N-SH3 and the C3G277–296 peptide, we resorted to carry out pre-steady state rapid mixing stopped-flow experiments. In these types of experiments, a common practice lies in performing the kinetic analysis under the so-called pseudo-first-order conditions, i.e., a condition in which one of the two reactants is held at a much higher concentration than the other. In practice, in many cases, it is extremely difficult to achieve such conditions. This is particularly true in cases in which the observed rate constants are so high to approach the experimental limitations of the stopped-flow apparatus. Accordingly, as described below, the analysis of the binding data must be performed by applying the analytical solution of the bimolecular binding transition.
We rapidly mixed a constant concentration of C3G277–296 peptide (0.5 µM) versus increasing concentrations of N-SH3 (ranging from 0.5 to 5 µM) and the observed rate constants (kobs) obtained at different ionic strength conditions (buffer Hepes 50 mM, pH 7.0, 0.15 M, 0.3 M, 0.5 M and 1 M NaCl) were plotted as function of concentration of N-SH3 and fitted with a linear equation (Figure 1). By following previously derived equations [19, 20], the dependence of kobs as function of [N-SH3] was fitted with Equation (1), taking into account the non-pseudo-first order conditions, allowing us to calculate the microscopic association rate constant (kon), the microscopic dissociation rate constant (koff) of the binding reaction and the equilibrium dissociation rate constant KD, such as koff/kon. To increase the reliability of the calculated KD, we resorted to directly obtaining a koff value through displacement experiments (Table 1), in which a preincubated complex of N-SH3 domain and dansylated C3G277–296 peptide (at the concentration of 0.5 and 2 µM, respectively) were rapidly mixed versus a high excess of nondansylated peptide (ranging from 20 to 40 µM). In agreement with the theory in [21], the observed rate constants were insensitive to displacer concentration. In all binding and displacement experiments conducted, traces were satisfactorily fitted with a single-exponential equation. (1) kobs=(kon^2∗(2−[NSH3])^2+koff^2+2konkoff(2+[NSH3]))^1/2
To further investigate the role of charges in the binding reaction between N-SH3 domain and C3G, we resorted to performing kinetic binding experiment at different pH conditions, at a range of pH between 5.0 and 9.0. The observed rate constants obtained at different pH conditions were fitted with Equation (1) (Figure 2, left), and the calculated kinetic parameters kon and koff (obtained from separated displacement experiments) are reported in Table 1.
Kinetic binding experiments were performed on a single-mixing SX-18 stopped-flow instrument (Applied Photophysics), by mixing a constant concentration (0.5 μM) of C3G dansylated versus increasing concentrations of N-SH3 at 10 °C. Ionic strength dependence of wt N-SH3 was performed with concentrations ranging from 1 to 5 µM for 0 M NaCl condition and from 0.5 to 5 µM for 0.15 M, 0.3 M, 0.5 M and 1 M NaCl, buffer Hepes 50 mM pH 7.0. The excitation wavelength was 280 nm, and fluorescence was collected using a 455 nm cut-off filter. At least, five independent acquisitions were collected and averaged for each experiment. […]

Peptide text beside a SMILES is read from it. * marks the point of attachment. Dansyl = CN(C)c1cccc2c(S(=O)(=O)*)cccc12

T1 sequence (P46109 123-183 limits assumed): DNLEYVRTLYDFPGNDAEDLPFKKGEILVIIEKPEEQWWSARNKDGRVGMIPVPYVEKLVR

For orientation: kon means the second-order rate constant of association. `CC(C)C[C@H](NC(=O)[C@H](C)NC(=O)[C@@H]1CCCN1C(=O)[C@@H]1CCCN1C(=O)[C@@H]1CCCN1C(=O)[C@H](CO)NC(=O)[C@H](CC(N)=O)NC(=O)[C@H](CC(=O)O)NC(=O)[C@@H](NC(=O)[C@@H](NS(=O)(=O)c1cccc2c(N(C)C)cccc12)C(C)C)C(C)C)C(=O)N1CCC[C@H]1C(=O)N1CCC[C@H]1C(=O)N[C@@H](CCCCN)C(=O)N[C@@H](CCCCN)C(=O)N[C@@H](CCCNC(=N)N)C(=O)N[C@@H](CCC(N)=O)C(=O)N[C@@H](CO)C(=O)N[C@@H](C)C(=O)N1CCC[C@H]1C(=O)N[C@@H](CO)C(=O)O` [C3G277–296] (Dansyl-VVDNSPPPALPPKKRQSAPS-OH): the kon turned out to be 4.4e+07 ± 1.5e+07 M⁻¹ s⁻¹ (pH 5, pH 5.0 (50 mM Sodium Acetate), 0.5 M NaCl, 0.5 µM dansylated peptide vs 4.0–8.0 µM N-SH3); 3.7e+07 ± 3e+06 M⁻¹ s⁻¹ (pH 5.5, pH 5.5 (50 mM Sodium Acetate), 0.5 M NaCl, 0.5 µM dansylated peptide vs 2.0–7.0 µM N-SH3); 6.5e+07 ± 4e+06 M⁻¹ s⁻¹ (pH 6.5, pH 6.5 (Bis–Tris 50 mM), 0.5 M NaCl, 0.5 µM dansylated peptide vs 0.5–5.0 µM N-SH3); 1.3e+08 ± 7e+06 M⁻¹ s⁻¹ (pH 7, 0 M NaCl, Hepes 50 mM pH 7.0, 0.5 µM dansylated peptide vs 1–5 µM N-SH3, FRET, ex 280 nm, 455 nm cut-off, at least five acquisitions averaged); 9.6e+07 ± 8e+06 M⁻¹ s⁻¹ (pH 7, 0.15 M NaCl, Hepes 50 mM pH 7.0, 0.5 µM dansylated peptide vs 0.5–5 µM N-SH3, FRET); 8.3e+07 ± 7e+06 M⁻¹ s⁻¹ (pH 7, 0.3 M NaCl, Hepes 50 mM pH 7.0, 0.5 µM dansylated peptide vs 0.5–5 µM N-SH3, FRET). Also, the kon by setting is: (pH 7, 0.5 M NaCl (ionic strength series), Hepes 50 mM pH 7.0, 0.5 µM dansylated peptide vs 0.5–5 µM N-SH3, FRET) 5.1e+07 ± 4e+06 M⁻¹ s⁻¹; (pH 7, 1.0 M NaCl, Hepes 50 mM pH 7.0, 0.5 µM dansylated peptide vs 0.5–5 µM N-SH3, FRET) 6.8e+07 ± 5e+06 M⁻¹ s⁻¹; (pH 7, pH 7.0 (Hepes 50 mM), 0.5 M NaCl (pH series), 0.5 µM dansylated peptide vs 1.5–6.0 µM N-SH3) 5.2e+07 ± 5e+06 M⁻¹ s⁻¹; (pH 7.5, pH 7.5 (Hepes 50 mM), 0.5 M NaCl, 0.5 µM dansylated peptide vs 0.5–5.0 µM N-SH3) 5.1e+07 ± 5e+06 M⁻¹ s⁻¹; (pH 8, pH 8.0 (Tris–HCl 50 mM), 0.5 M NaCl, 0.5 µM dansylated peptide vs 1.5–6.0 µM N-SH3) 5.6e+07 ± 5e+06 M⁻¹ s⁻¹; (pH 8.5, pH 8.5 (Tris–HCl 50 mM), 0.5 M NaCl, 0.5 µM dansylated peptide vs 1.5–6.0 µM N-SH3) 6.8e+07 ± 7e+06 M⁻¹ s⁻¹. Also, the kon (pH 9, pH 9.0 (Tris–HCl 50 mM), 0.5 M NaCl, 0.5 µM dansylated peptide vs 1.5–6.0 µM N-SH3) turned out to be 3.9e+07 ± 4e+06 M⁻¹ s⁻¹.
